Values quoted from earlier work, collected in US20140148399A1, “Compositions and methods for treating or ameliorating obesity or for reducing diabetic hypercholesterolemia” (UNIVERSITY OF TSUKUBA, priority 2012, published 2014).

Test system: 3T3-L1 cells

COc1cc(-c2oc3cc(O)cc(O)c3c(=O)c2O)ccc1O [Isorhamnetin]
adiponectin expression and secretion: reduces
C/EBP-α and PPAR-γ mRNA levels (3T3-L1 adipocyte differentiation): reducing
adipogenesis in 3T3-L1 cells (by inhibiting 3T3-L1 adipocyte differentiation): represses adipogenesis
